According to US20210121482A1, “WITHANOLIDES FOR THE TREATMENT OF CACHEXIA” (University of Louisville Research Foundation, Inc., priority 2019, published 2021):

Assays:
[1] = system: inflammatory cytokines and NLRP3 inflammasome markers in TA muscle; experiment: qPCR of TA muscle; type: in vivo, Mus musculus
Protocol: (§1) Total RNA Extraction and qPCR: Isolation of total RNA from xenografted tumor samples was performed using an RNeasy® Mini Kit (Qiagen Catalog #74104) according to the manufacturer's instructions. Isolation of total RNA from skeletal muscle was performed using an RNeasy® Fibrous Tissue Mini Kit (Qiagen Catalog #74704) according to the manufacturer's instructions. First strand cDNA was synthesized using 1 μg of purified RNA and a commercially available kit (iScript™ cDNA synthesis, Bio-Rad Catalog #170-8891), Quantification of mRNA expression was performed similar to as previously described (Hindi and Kumar, 2016) using the SYBR Green dye method on a StepOnePlus™ system (Applied Biosystems) using gene-specific primers, as shown in Table 1.

phospho-p65 (NF-κB) = experiment: Western blot and IHC of p65 in tumor samples; type: in vivo, mice; details: 2 and 6 mg/kg
Protocol: Immunohistochemistry of Tumor Tissue: For the detection of various proteins, 10 μm thick sections were made from the midsection of tumor samples. A hydrophobic boundary was drawn around the sections and then they were fixed in 3.7% formaldehyde solution for 10 minutes. The slides were washed three times with 1×PBS for 5 minutes each. The sections were then blocked in 2% BSA in PBS for 30 minutes. The sections were then incubated with primary antibodies (1:100 dilution) overnight in a humidity chamber at 4° C. The sections were then washed three times with 1×PBS for 5 minutes. The slides were incubated in appropriate secondary antibodies (1:2000 dilution) for 45-60 minutes. Sections were counterstained with DAPI (1:2500 dilution) for 5 minutes to visualize nuclei. Slides were then washed twice in 1×PBS for 5 minutes, and then mounted for visualization. Nonspecific background staining was determined by performing the above protocol with omitting the inclusion of the primary antibodies. Refer to Table 2 for a complete list of antibodies utilized.
(§2) Protein Extraction and Western Blotting: Tumor samples were homogenized in chilled RIPA buffer (Sigma) supplemented with a Complete Mini Protease Inhibitor tablet (Roche Molecular Biochemicals, Indianapolis, Ind.). Tissue lysates were centrifuged at 10,000 RPM and the supernatants were collected. Protein concentration for each sample was determined using the Bradford reagent method (Bio-Rad), according to manufacturer's instructions. Protein lysates (50 bg) were separated on 10% SDS-PAGE gels at 100 volts for 2 h. The proteins were transferred to nitrocellulose membranes at 100 volts for 90 minutes. The membranes were blocked with 5% non-fat milk in Tris-buffered saline supplemented with Tween®20 (0.5%; TBS-T) for 30-60 minutes. The membranes were then washed 3 times with TBS-T for 5 minutes. The membranes were then incubated with primary antibody at 4° C. overnight. […]

[2] = system: Pax7, Myod1, UPR, UPS and ALS markers in GA muscle; experiment: qPCR of GA muscle (Pax7, Myod1, UPR, UPS, ALS markers); type: in vivo, Mus musculus
Protocol: as §1
Total RNA Extraction and qPCR: as in Example 1.

[3] = system: poly-ubiquitinated proteins; experiment: Immunoblot for poly-ubiquitinated proteins; type: in vivo, mice; details: WFA treatment, 2 and 4 mg/kg
Protocol: as §2, with “Quadriceps femoris (QF)” for “Tumor”, “μg)” for “bg)”, “Tris Buffered Saline” for “Tris-buffered saline”, “Tween-20” for “Tween®20”, “overnight. The membranes were washed 3 times with TBS-T for 5 minutes each followed by incubation in TBS-T containing horseradish peroxidase conjugated secondary antibody (1:2000 dilution) for 1 h. The membranes were rinsed 3 times with TBS-T for 5 minutes each. Visualization of immunoreactive bands was enhanced using chemiluminescence reagents (Sigma).” for “overnight.”

A2780 = experiment: Effect on ovarian cancer cell line A2780; type: cell-based; details: A2780 cells; through reactive oxygen species production and DNA damage
[4] = 2 mg/kg, vs vehicle treated group
[5] = 6 mg/kg, vs vehicle treated group
[6] = tumor-bearing, 2 mg/kg, vs tumor-bearing vehicle
[7] = tumor-bearing, 4 mg/kg, vs tumor-bearing vehicle
[8] = tumor-bearing, 2 and 4 mg/kg, vs tumor-bearing vehicle
[9] = tumor-free, 4 mg/kg, vs tumor-free vehicle
[10] = tumor-free, WFA-treated groups vs vehicle-treated

Which “relative mRNA levels of TNFα, IFNγ, IL-6, MIP-2 in TA muscle” value [1, 4] does the source give for CC1=C(CO)C(=O)O[C@@H]([C@@H](C)[C@H]2CC[C@H]3[C@@H]4C[C@H]5O[C@]56[C@@H](O)C=CC(=O)[C@]6(C)[C@H]4CC[C@]23C)C1 [WFA, (4β,5β,6β,22R)-4,27-Dihydroxy-5,6:22,26-diepoxyergosta-2,24-diene-1,26-dione] here?
Its value is “significantly reduced”.

And the “transcript levels of HO-1 in TA muscle” value [1, 4]?
The value was “increased compared to the vehicle treated group”.

What about the “transcript levels of NLRP3, CASP1, IL-1β, IL-18 in TA muscle” value [1, 4] of the same compound?
Its value is “significant reduction in all tested NLRP3 inflammasome transcript levels”.

And the “relative mRNA levels of TNFα, IFNγ, IL-6, MIP-2 in TA muscle” value ([1]; 6 mg/kg, vs control and WFA 2 mg/kg groups)?
Its value is “robust increase in the expression of select proinflammatory cytokines”.

What about the “transcript levels of CASP1 and IL-1β in TA muscle” value ([1]; 6 mg/kg, vs control group) of the same compound?
Its value is “significantly increased”.

And the “transcript levels of HO-1 in TA muscle” value ([1]; 6 mg/kg, vs control or vehicle treated groups)?
Its value is “no significant changes in HO-1 expression”.

And the “relative mRNA levels of NLRP3 and IL-18 in TA muscle” value [1, 5]?
Its value is “significantly reduced”.

And the “relative transcript levels of IFNγ and MIP-2 in TA muscle” value [1, 5]?
Its value is “significantly reduced”.

And the “relative transcript levels of TNFα and IL-6 in TA muscle” value ([1]; 6 mg/kg, vs vehicle treated group (p=0.09 and <0.0001))?
The value was “increased”.

And the “phospho-p65 co-localized with DAPI (nuclear translocation)” value (phospho-p65 (NF-κB))?
Its value is “impairment in the translocation of p65 to the nucleus”.

What about the “phospho-p65 staining in tumor cells (IHC)” value (phospho-p65 (NF-κB); vs vehicle treated group) of the same compound?
The value was “severely diminished”.

What about the “protein levels of phospho- and total p65 in tumor (immunoblot)” value (phospho-p65 (NF-κB); vs vehicle treated group) of the same compound?
The value was “robust decrease in the protein levels of phospho- and total p65”.

And the “relative transcript levels of Ddit3 in GA muscle” value [2, 6]?
The value was “upregulation of relative transcript levels of Ddit3”.

What about the “relative transcript levels of Ern1 in GA muscle” value [2, 6] of the same compound?
The value was “no significant difference in relative transcript levels of Ern1”.

And the “transcript levels of Eif2ak3, Atf4, Pppr1r15a, Hspa5, Hsp90B1, Tnfrsf10B in GA muscle” value [2, 6]?
The value was “reduction in Eif2ak3, Atf4, Pppr1r15a, Hspa5, Hsp90B1, and Tnfrsf10B”.

What about the “relative transcript levels of Ddit3 and Ern1 in GA muscle” value [2, 7] of the same compound?
Its value is “significant increase in relative transcript levels of Ddit3 and Ern1”.

What about the “transcript levels of Eif2ak3, Atf4, Pppr1r15a, Hspa5, Hsp90B1, Tnfrsf10B in GA muscle” value [2, 7] of the same compound?
The value was “decrease in relative transcript levels of Eif2ak3, Atf4, Pppr1r15a, Hspa5, Hsp90B1, and Tnfrsf10B”.

What about the “relative mRNA expression of Sqstm1, Map1lc3b, Becn1” value [2, 8] of the same compound?
The value was “significant dose-dependent reduction in relative mRNA expression of the select ALS markers”.

And the “transcription of Fbxo30, Fbxo32, Trim63, Traf6” value [2, 8]?
Its value is “statistically significant dose-dependent transcriptional downregulation of Fbxo30, Fbxo32, Trim63, and Traf6”.

And the “relative transcript levels of Pax7 and Myod1 in GA muscle” value ([2]; tumor-free and tumor-bearing WFA-treated groups)?
Its value is “significant increases in both Pax7 and Myod1”.

And the “relative transcriptional expression of Fbxo30 and Traf6” value ([2]; tumor-free, 2 mg/kg, vs vehicle-treated)?
Its value is “significant reduction in the relative transcriptional expression of Fbxo30 and Traf6”.

And the “relative gene expression of Fbxo30, Fbxo32, Trim63, Traf6” value [2, 9]?
Its value is “significant reduction in relative gene expression of Fbxo30, Fbxo32, Trim63, and Traf6”.

What about the “relative gene expression of Sqstm1, Map1lc3b, Becn1” value [2, 9] of the same compound?
The value was “significant reduction in relative gene expression”.

What about the “transcript levels of Atf4 and Tnfrsf10B in GA muscle” value [2, 10] of the same compound?
Its value is “no change in transcript levels of Atf4 and Tnfrsf10B”.

And the “transcript levels of Eif2ak3, Ddit3, Pppr1r15a, Ern1 in GA muscle” value [2, 10]?
The value was “transcriptional upregulation of Eif2ak3, Ddit3, Pppr1r15a, and Ern1”.

And the “transcript levels of Hspa5 and Hsp90B1 in GA muscle” value [2, 10]?
Its value is “downregulation of Hspa5 and Hsp90B1”.

And the “pan-ubiquitination of proteins (immunoblot)” value [3]?
The value was “reduced in response to WFA treatment”.

What about the cell death (A2780) of the same compound?
Its cell death is “autophagic cell death”.
